The test system of data set [1] is GAPDH. The experiment in a line: RT-PCR analysis of GAPDH gene expression in HeLa cells (internal control). The data set is classed as cell-based. The following applies: 100 μM FC, 24 hours, vs untreated control. As for the experimental part:
In other test, we have analyzed influence of FC on the specific gene expression. In this case it was DNMT-1. Effect of FC on DNMT-1 expression was check in HeLa cells after 24 hours (FIG. 3A).
(§1) HeLa and fibroblast cells are routinely maintained in this laboratory. Fibroblast cells were grown in Optimem medium supplemented with 10% fetal calf serum and antibiotics, HeLa cells were grown in RPMI 1640 supplemented with 10% fetal calf serum and antibiotics (penicillin 100 U/ml and streptomycin 100 ug/ml). All cell lines were incubated in a humidified atmosphere with 5% CO2 in air at 37° C.
Total RNA from cells was isolated using TRIZOL reagent (Invitrogen). Samples for analyses of gene expression were prepared from cultured Hela and fibroblast cells Aliquots (1×10^6 cells) were removed and homogenized in TRIZOL reagent (Invitrogen). Total RNA was then chloroform extracted and precipitated using iso-propanol and ethanol. Reverse transcription was carried out using: 2 μg RNA, random primer and RevertAid™ H Minus M-MuLV reverse transcriptase (Fermentas) according to the manufactures instructions. The resultant cDNA was amplified with primers complementary to the glyceraldehyde-3-phosphate dehydrogenase, GAPDH (G1: GGGTGGAGCCAAACGGGTC, G2: […]) PCR reaction was initiated with denaturation at 94° C. for 2 min, annealing at 55° C. for 1 min, extension at 72° C. for 30 sec, followed by 30 cycles. […]

The next data set relates to fibroblast cells. In words: cytotoxic effect of FC on fibroblast cell viability, long-term culture. The data set is classed as cell-based. The following applies: 100 μM FC, vs untreated control. Here is the method:
It was observed much less living cells and after 5 weeks they are clearly death (FIG. 2A).
as §1
There 1×10^6 cells on 6-well plates were used to study the cytotoxicity area of FC on cell growth in the presence or absence of FC.

The test system of data set [2] is GAPDH. The experiment in a line: RT/PCR analysis of GAPDH gene expression in fibroblast cells. The data set is classed as cell-based. The following applies: fibroblast cells cultured 5 weeks with 100 μM FC; phosphoimager analysis. Here is the method: To confirm this observation total RNA was isolated and RT/PCR was perform to analyzed total GAPDH gene expression as a result of condition of cells survival (FIG. 2B) The phosphoimager analysis was performed to determined differences in GAPDH expression in fibroblast cells. We observed that it is 72% lower in FC treated cells in comparison to the control (FIG. 2C).
Total RNA from cells was isolated using TRIZOL reagent (Invitrogen). Samples for analyses of gene expression were prepared from cultured Hela and fibroblast cells Aliquots (1×10^6 cells) were removed and homogenized in TRIZOL reagent (Invitrogen). Total RNA was then chloroform extracted and precipitated using iso-propanol and ethanol. Reverse transcription was carried out using: 2 μg RNA, random primer and RevertAid™ H Minus M-MuLV reverse transcriptase (Fermentas) according to the manufactures instructions. The resultant cDNA was amplified with primers complementary to the glyceraldehyde-3-phosphate dehydrogenase, GAPDH (G1: GGGTGGAGCCAAACGGGTC, G2: […]) PCR reaction was initiated with denaturation at 94° C. for 2 min, annealing at 55° C. for 1 min, extension at 72° C. for 30 sec, followed by 30 cycles. Equal volumes of amplified products were electrophoresed on […] gel and stained with ethidium bromide.
Differences in expression level were determined using Phosphoimager and ImageQant program.

A short description of data set [3]: solubility observed during purification. The data set is classed as physicochemical. Here is the method:
The second step was the reaction of furfurylamine (FIG. 1 V) with 4-N-p-toluenesulfonyl-2′-deoxycytidine (FIG. 1 I). The third step was depended on creating of 4-N-furfurylcytosine (FIG. 1 III), by cleavage of N-glycosyl bond by solution of inorganic acid in water (pH of this solution was about 3).
In this reason, purify on the column was performed in warm water (40-45° C.). The column was referred by aluminium foil, because the decrease temperature of water was carried out to precipitate of the product on the gel. The purification of the product was performed two times, because acid degradation of ribose gave a lot of byproducts, obstructed purification. The main product was eluted in 0.1% warm water solution of methanol. When the temperature of solvent was higher than 45° C., the product could elute earlier. The 4-N-furfurylcytosine was crystallized in water, gave colorless crystals, which form thin needles.

Entries after “also recorded” stand apart in the source; their conditions may differ.

`O=c1nc(NCc2ccco2)cc[nH]1` [FC, 4-N-furfurylcytosine]: the GAPDH expression level result in the data set on GAPDH [1] is “stable and similar”. Besides, the fibroblast cell viability entry in the data set on fibroblast cells (after 3 weeks of culture) is “decreases in cell viability”. In the data set with fibroblast cells (after 5 weeks of culture), the “fibroblast cell viability / cytotoxic effect” value is on record as “clearly death; also recorded: cytotoxic effect”. Also, the “GAPDH expression lower in FC treated cells in comparison to the control” value with GAPDH [2] is recorded as 72%. The solubility in solvents result in data set [3] (all solvents) was “low solubility”. Moreover, the solubility in water result in data set [3] (water, increases with temperature) is “best solubility”.

Values taken from patent US8404660B2, “Method of obtaining of 4-N-furfurylcytosine and/or its derivatives, an anti-aging composition and use of 4-N-furfurylcytosine and/or its derivatives in the manufacture of anti-aging composition” (Instytut Chemii Bioorganicznej Pan, priority 2007, dated 2013).
